# How the values were obtained:
# [1] = test system: Arabidopsis thaliana (K31-4-2) transformed with a Kasalath-derived CYP72A31 gene; assay: Drug sensitivity test on drug-containing MS medium, Arabidopsis thaliana transformed with Kasalath-derived CYP72A31 gene; format: in vivo; conditions: for Ratio of sensitivity: K31-4-2 / NT
# Experimental: A bag of mixed salts for Murashige-Skoog (MS) medium (manufactured by Wako Pure Chemical Industries, Ltd.) 20 g of sucrose, 3 mg of thiamin hydrochloride, 5 mg of nicotinic acid, and 0.5 mg of pyridoxine hydrochloride were dissolved in distilled water, and filled up to 1 L with distilled water. After pH adjustment to 5.8 to 6.3 with 1 M KOH, 3 g of Gelrite was added to the solution, and dissolved using a microwave. After that, the mixture was autoclaved to prepare a sterile MS medium. A test drug was added to this sterile MS medium so as to make a final concentration of 1.3, 4.1, 12, 37, 110, or 330 nM. Arabidopsis thaliana from a sterilized seed was seeded in the drug-containing MS medium, and cultivated at 22° C. for 12 to 14 days in a continuous light period.
# Note that the drugs used in this Example were bispyribac-sodium, pyrithiobac-sodium, pyriminobac, bensulfuron-methyl, penoxsulam, pyrazosulfuron-ethyl, amidosulfuron, imazosulfuron, nicosulfuron, and propyrisulfuron.
# [2] = test system: Nipponbare and Kasalath calluses with CYP72A31 overexpression construct; assay: Callus growth test on BS-containing medium, Kasalath CYP72A31 overexpression construct; format: cell-based, Oryza sativa; conditions: medium containing 0.25, 0.5, or 0.75 μM BS
# Text: According to Example 5, an HptII::35Spro::Kasalath CYP72A31::Tnos vector plasmid (pCAMBIA1390-KasCYP72A31, a kasCYP72A31 overexpression construct) or, as a control, an HptII::35Spro::sGFP::Tnos vector plasmid (pCAMBIA1390-sGFP, an sGFP overexpression construct) was introduced into a rice variety (cultivars: Nipponbare and Kasalath) by using an Agrobacterium method. Transformed calluses selected with 50 ppm hygromycin were isolated, and transplanted onto a bispyribac-sodium (BS)-containing medium to examine callus growth.
# [3] = test system: Nipponbare calluses overexpressing Kasalath-derived or Nipponbare-derived CYP72A32 or CYP72A33; assay: Callus growth test on BS-containing medium, CYP72A32 or CYP72A33 overexpression constructs; format: cell-based, Oryza sativa
# Text: According to Example 5, an HptII::35Spro::Kasalath CYP72A32::Tnos vector plasmid (pCAMBIA1390-KasCYP72A32, a kasCYP72A32 overexpression construct), an HptII::35 Spro::Kasalath CYP72A33::Tnos vector plasmid (pCAMBIA1390-KasCYP72A33, a kasCYP72A33 overexpression construct), an HptII::35Spro::Nipponbare CYP72A32::Tnos vector plasmid (pCAMBIA1390-nbCYP72A32, an nbCYP72A32 overexpression construct), or an HptII::35Spro::Nipponbare CYP72A33::Tnos vector plasmid (pCAMBIA1390-nbCYP72A33, an nbCYP72A33 overexpression construct) was introduced into a rice variety (a cultivar: Nipponbare) by using an Agrobacterium method. Transformed calluses selected with 50 ppm hygromycin were isolated, and transplanted onto a bispyribac-sodium (BS)-containing medium to examine callus growth.
# [4] = test system: Rice (Nipponbare) calluses transformed with pCAMBIA1390-KasCYP72A31; assay: Redifferentiation and rooting test, rice callus transformed with pCAMBIA1390-KasCYP72A31; format: cell-based, Oryza sativa
# Experimental: (§1) After selective culturing, the callus was transplanted onto a rice redifferentiation medium RE-III (containing 50 ppm hygromycin or 0.25 μM bispyribac sodium), cultured at 27 degree C. under 16L/8D conditions, and led to redifferentiate. The callus was plated after 2 weeks. At additional about 2 to 3 weeks, a redifferentiated, transformed rice (T0) was obtained. Once a differentiated shoot and/or root had appeared, the rice was transplanted onto a hormone-free (HF) medium (containing 50 ppm hygromycin or 0.25 μM bispyribac sodium).
# (§2) According to Example 5, an HptII::35Spro::Kasalath CYP72A31::Tnos vector plasmid (pCAMBIA1390-KasCYP72A31, a kasCYP72A31 overexpression construct) or, as controls, an HptII::35Spro::sGFP::Tnos vector plasmid (pCAMBIA1302-sGFP, an sGFP overexpression construct) or an OsALS (W548L/S627I)::OsAct-1pro::sGFP::Tnos vector plasmid (pSTARA-sGFP, a BS-resistant construct) was introduced into a rice variety (a cultivar: Nipponbare) by using an Agrobacterium method. According to a schedule designated in FIG. 12A), transformed calluses were selected with 50 ppm hygromycin. […] Of all the calluses, 43 calluses were transplanted onto a redifferentiation medium containing 0.25 μM BS.
# Rice (Nipponbare) calluses transformed with a pCAMBIA1390-KasCYP72A31 construct in Example 8 were obtained by 50 ppm hygromycin selection. When these calluses were transplanted onto a redifferentiation medium containing 50 ppm hygromycin, shoots and roots were differentiated from the callus at a redifferentiation efficiency of 95% (38/40 calluses). Subsequently, 25 redifferentiation calluses transformed with a pCAMBIA1390-KasCYP72A31 construct were transplanted onto a hormone-free medium containing 1 μM BS. As a result, 7 calluses had extending roots (a root extension rate of 28%. FIG. 15).
# [5] = test system: Rice (Nipponbare) calluses transformed with pCAMBIA1302-sGFP; assay: Redifferentiation and rooting test, control rice callus transformed with pCAMBIA1302-sGFP; format: cell-based, Oryza sativa
# Experimental: as §1, §2
# Rice (Nipponbare) calluses transformed with a pCAMBIA1390-KasCYP72A31 construct in Example 8 were obtained by 50 ppm hygromycin selection. […]
# [6] = test system: rice calluses transformed with pSTARA-sGFP; assay: Selection of drug-resistant callus in N6D medium, pSTARA-sGFP; format: cell-based, Oryza sativa; conditions: N6D medium containing 0.25 μM BS
# Experimental: Rice transformed with pCAMBIA1390-KasCYP72A31 was used to examine whether a Kasalath-derived CYP72A31 gene was able to be used as a selection marker for transformation with BS as a selection reagent. According to Example 5, rice (Nipponbare) was transformed with pCAMBIA1390-KasCYP72A31 or pSTARA-sGFP by using an Agrobacterium method.
# Rice (Nipponbare) calluses transformed with pCAMBIA1390-KasCYP72A31 were cultured for 4 weeks in an N6D medium containing 0.1 or 0.25 μM BS or an N6D medium containing 50 ppm hygromycin to select drug-resistant calluses. Also, rice calluses transformed with pSTARA-sGFP were selected in a similar manner in an N6D medium containing 0.25 μM BS.
# [7] = hormone-free medium containing 1 μM BS
# [8] = redifferentiation medium containing 0.25 μM BS
compound,measurement,setting,value
"COc1cc(OC)nc(Oc2cccc(Oc3nc(OC)cc(OC)n3)c2C(=O)O)n1 [BS, bispyribac sodium]",Resistance of transformed Arabidopsis thaliana to the drug,"[1]; K31-4-2, Tables 2 and 3, FIGS. 20 to 24",exhibited resistance
same,Rate of emerging of true leaf (%),"[1]; K31-4-2, drug 1.3 nM, day 12 after seeding",89%
same,Rate of emerging of true leaf (%),"[1]; K31-4-2, drug 1.3 nM, day 14 after seeding",100%
same,Rate of emerging of true leaf (%),"[1]; K31-4-2, drug 4.1 nM, day 12 after seeding",100%
same,Rate of emerging of true leaf (%),"[1]; K31-4-2, drug 4.1 nM, day 14 after seeding",100%
same,Rate of emerging of true leaf (%),"[1]; K31-4-2, drug 12 nM, day 12 after seeding",89%
same,Rate of emerging of true leaf (%),"[1]; K31-4-2, drug 12 nM, day 14 after seeding",100%
same,Rate of emerging of true leaf (%),"[1]; K31-4-2, drug 37 nM, day 12 after seeding",100%
same,Rate of emerging of true leaf (%),"[1]; K31-4-2, drug 37 nM, day 14 after seeding",100%
same,Rate of emerging of true leaf (%),"[1]; K31-4-2, drug 110 nM, day 12 after seeding",100%
same,Rate of emerging of true leaf (%),"[1]; K31-4-2, drug 110 nM, day 14 after seeding",100%
same,Rate of emerging of true leaf (%),"[1]; K31-4-2, drug 330 nM, day 12 after seeding",78%
same,Rate of emerging of true leaf (%),"[1]; K31-4-2, drug 330 nM, day 14 after seeding",80%
same,Ratio of sensitivity,"[1]; maximum drug concentration for 40% or more emerging of true leaves, day 12",>28
same,Ratio of sensitivity,"[1]; maximum drug concentration for 80% or more emerging of true leaves, day 14",>80
same,Callus growth,[2],demonstrated to grow
same,Callus growth,[3],not grown
same,Calluses with extending roots of all redifferentiation calluses,[4]; hormone-free medium containing 0.25 μM BS,73%
same,Root extension rate,[4]; [7],28%
same,Redifferentiation efficiency,[4]; [8],91%
same,Rooting and survival of plant bodies,[5]; [7],killed the plant bodies
same,Redifferentiation,[5]; [8],found not to include those redifferentiated
same,Selection efficiency (ratio of the resulting transformed calluses/all calluses),[6],82%
